Test results as given in patent US5703097A, “5-pyrrolyl-2-pyridylmethylsulfinyl benzimidazole derivatives” (priority 1994, dated 1997).
Counter-ions that a name gives are not always drawn. Each block holds one molecule with its values, some of them ahead of it.

Legend:
[1] = tested on: gastric acidity; experiment: Effect on inhibition of acidity (total acid output), in vivo, Shay method (TEST 2); set-up: species or system rat (SD male rats); conditions: for Volume (acidity, total acid output) / Inhibition rate, acidity: into duodenum, 5 hours; for Volume (acidity, total acid output): pylorus-ligated rats; for Inhibition rate, acidity: vs normal group
Experimental: (§1) The specific test methods are as follows.
(§2) SD male rats (200±20 g) were fasted for 24 hours, except for water, and then anesthesized with ether. The abdomen of rats was incised and then the pylorus was ligated. The test compounds were suspended or dissolved in 5% CMC (carboxymethylcellulose) and injected into duodenum. After the abdomen was sutured, the rats were allowed to stand for 5 hours and then sacrificed with ether. The stomach was removed from rats and the gastric juices were collected. The gastric juice was centrifuged with 10,000 xg for 10 minutes at 4° C. to remove the precipitate. The amount of gastric juice and acidity were determined using pH 7.0 end point assay with 0.02N NaOH and then the total acid output was calculated.

[2] = tested on: gastric juice secretion; experiment: Effect on inhibition of gastric juice secretion, in vivo, Shay method (TEST 2); set-up: species or system rat (SD male rats); conditions: for Volume of gastric juice / Inhibition rate, gastric juice secretion: into duodenum, 5 hours; for Volume of gastric juice: pylorus-ligated rats; for Inhibition rate, gastric juice secretion: vs normal group
Experimental: as §1, §2

[3] = target: T1, H^+ /K^+ -ATPase (Oryctolagus cuniculus, UniProt P27112); experiment: Inhibition of enzyme activity: in vitro inhibition of H+/K+-ATPase (TEST 1); type: biochemical, rabbit; conditions: 5 min pre-incubation at 37° C., 4 mM ATP
T1 construct: The gastric mucous membrane was removed from a rabbit; from tissue; host or cells: rabbit gastric mucosa, microsomal fraction (77,000 g)
Experimental: In this test, omeprazole [5-methoxy-2-[[(4-methoxy-3,5-dimethyl-2-pyridinyl)methyl]sulfinyl]-1H-benzimidazole] was used as the control compound.
The gastric mucous membrane was removed from a rabbit and then centrifuged with 77,000 g using a ultra-centrifuge to separate the microsomal fraction which was used as the source of H^+ /K^+ -ATPase enzyme for this test. 60 μg of H^+ /K^+ -ATPase was pre-incubated with the sample (the compound according to the present invention) for 5 minutes at 37° C. and then 4 mM ATP as the substrate and 4 mM Mg^++, 20 mM K^+ as the cofactor were added thereto. Then, the amount of inorganic phosphorus thus produced was determined using a spectrophotometer at 660 nm and converted into the amount of protein. […]

[4] = in words, even at a lower dose than that of the known anti-ulcer agent

T1 sequence (P27112 2-1035 limits assumed): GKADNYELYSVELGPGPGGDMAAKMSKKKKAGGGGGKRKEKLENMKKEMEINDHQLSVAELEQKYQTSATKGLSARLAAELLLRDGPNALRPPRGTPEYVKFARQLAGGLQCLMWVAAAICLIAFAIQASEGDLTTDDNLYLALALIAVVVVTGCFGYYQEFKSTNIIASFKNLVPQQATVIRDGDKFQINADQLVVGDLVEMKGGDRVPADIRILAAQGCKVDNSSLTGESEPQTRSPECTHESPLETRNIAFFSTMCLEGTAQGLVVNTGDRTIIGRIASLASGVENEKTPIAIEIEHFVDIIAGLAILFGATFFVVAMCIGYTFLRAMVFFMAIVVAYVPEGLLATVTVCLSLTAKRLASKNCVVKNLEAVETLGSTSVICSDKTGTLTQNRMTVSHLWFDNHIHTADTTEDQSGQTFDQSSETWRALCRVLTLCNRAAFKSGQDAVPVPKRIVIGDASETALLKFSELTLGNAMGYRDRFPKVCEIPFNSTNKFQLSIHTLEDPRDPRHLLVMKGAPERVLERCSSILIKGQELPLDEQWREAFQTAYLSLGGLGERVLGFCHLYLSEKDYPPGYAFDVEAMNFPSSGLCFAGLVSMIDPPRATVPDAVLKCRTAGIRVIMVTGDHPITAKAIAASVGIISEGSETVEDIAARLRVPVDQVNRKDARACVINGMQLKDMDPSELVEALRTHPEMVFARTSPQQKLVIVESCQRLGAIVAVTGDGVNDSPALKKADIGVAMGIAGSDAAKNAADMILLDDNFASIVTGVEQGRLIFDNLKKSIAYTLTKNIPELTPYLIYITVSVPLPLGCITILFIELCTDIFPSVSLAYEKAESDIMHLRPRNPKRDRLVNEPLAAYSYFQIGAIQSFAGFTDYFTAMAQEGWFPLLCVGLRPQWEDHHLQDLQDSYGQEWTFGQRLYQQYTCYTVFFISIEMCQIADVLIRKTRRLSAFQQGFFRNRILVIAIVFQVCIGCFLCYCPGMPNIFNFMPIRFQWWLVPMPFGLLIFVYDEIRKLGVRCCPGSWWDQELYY
T1 sequence (P18597 whole entry partner): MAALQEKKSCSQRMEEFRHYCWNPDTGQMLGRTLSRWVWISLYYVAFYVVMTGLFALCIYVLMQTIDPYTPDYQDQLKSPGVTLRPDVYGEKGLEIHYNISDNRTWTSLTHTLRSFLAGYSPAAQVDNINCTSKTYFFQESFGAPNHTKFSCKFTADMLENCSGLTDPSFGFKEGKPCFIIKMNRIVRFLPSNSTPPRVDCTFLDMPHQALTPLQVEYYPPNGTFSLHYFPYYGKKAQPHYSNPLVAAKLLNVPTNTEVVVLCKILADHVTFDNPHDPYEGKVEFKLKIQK

Compound: CCOc1ccnc(C[S+]([O-])c2nc3cc(-n4cccc4)ccc3[nH]2)c1C (stereo not shown) [Compound 9]
Volume (acidity, total acid output) ([1]; 10 mg/kg): 11.84 ± 3.10 μ Eq/hr | Inhibition rate, acidity ([1]; 10 mg/kg): 56.66% | Volume (acidity, total acid output) ([1]; 30 mg/kg): 3.80 ± 1.54 μ Eq/hr | Inhibition rate, acidity ([1]; 30 mg/kg): 86.09% | effect for lowering acidity ([1]; in words): good effects | Volume of gastric juice ([2]; 10 mg/kg): 1.50 ± 0.15 ml/100 g BW | Inhibition rate, gastric juice secretion ([2]; 10 mg/kg): 36.04% | Volume of gastric juice ([2]; 30 mg/kg): 1.14 ± 0.12 ml/100 g BW | Inhibition rate, gastric juice secretion ([2]; 30 mg/kg): 51.46% | effect for inhibition of gastric acid secretion ([2]; in words): good effects | IC50 [3]: 64 µM

Compound: COc1c(C)cnc(C[S+]([O-])c2nc3cc(-n4cccc4)ccc3[nH]2)c1C (stereo not shown) [Compound 4]
IC50 [3]: 210 µM

Compound: Cc1cnc(C[S+]([O-])c2nc3cc(-n4cccc4)ccc3[nH]2)cc1C (stereo not shown) [Compound 6]
IC50 [3]: ~400 µM

Compound: COc1ccnc(C[S+]([O-])c2nc3cc(-n4cccc4)ccc3[nH]2)c1C (stereo not shown) [Compound 17]
Volume (acidity, total acid output) ([1]; 3 mg/kg): 14.94 ± 3.02 μ Eq/hr | Inhibition rate, acidity ([1]; 3 mg/kg): 75.02% | Volume (acidity, total acid output) ([1]; 10 mg/kg): 8.50 ± 1.30 μ Eq/hr | Inhibition rate, acidity ([1]; 10 mg/kg): 85.79% | Volume (acidity, total acid output) ([1]; 30 mg/kg): 6.06 ± 3.05 μ Eq/hr | Inhibition rate, acidity ([1]; 30 mg/kg): 89.87% | effect for lowering acidity ([1]; in words): good effects | Volume of gastric juice ([2]; 3 mg/kg): 1.31 ± 0.18 ml/100 g BW | Inhibition rate, gastric juice secretion ([2]; 3 mg/kg): 54.79% | Volume of gastric juice ([2]; 10 mg/kg): 1.23 ± 0.20 ml/100 g BW | Inhibition rate, gastric juice secretion ([2]; 10 mg/kg): 57.55% | Volume of gastric juice ([2]; 30 mg/kg): 1.15 ± 0.15 ml/100 g BW | Inhibition rate, gastric juice secretion ([2]; 30 mg/kg): 60.38% | effect for inhibition of gastric acid secretion ([2]; in words): good effects | IC50 [3]: 13 µM

Compound: COc1cc(C[S+]([O-])c2nc3cc(-n4cccc4)ccc3[nH]2)ncc1C (stereo not shown) [Compound 5]
Volume (acidity, total acid output) ([1]; 10 mg/kg): 16.89 ± 4.06 μ Eq/hr | Inhibition rate, acidity ([1]; 10 mg/kg): 70.60% | Volume (acidity, total acid output) ([1]; 30 mg/kg): 5.59 ± 2.22 μ Eq/hr | Inhibition rate, acidity ([1]; 30 mg/kg): 90.27% | effect for lowering acidity ([1]; in words): good effects | acidity lowering effect [1, 4]: high acidity lowering effect | Volume of gastric juice ([2]; 10 mg/kg): 1.31 ± 0.23 ml/100 g BW | Inhibition rate, gastric juice secretion ([2]; 10 mg/kg): 52.81% | Volume of gastric juice ([2]; 30 mg/kg): 0.99 ± 0.16 ml/100 g BW | Inhibition rate, gastric juice secretion ([2]; 30 mg/kg): 64.30% | effect for inhibition of gastric acid secretion ([2]; in words): good effects | inhibition of gastric juice secretion [2, 4]: strong inhibition of gastric juice secretion | IC50 [3]: 32 µM

Compound: COc1ccnc(CSc2nc3cc(-n4cccc4)ccc3[nH]2)c1C [Compound 1, 2-[[(4-methoxy-3-methyl)-2-pyridinyl]methylthio]-5-(1H-pyrrol-1-yl)-1H-benzimidazole]
IC50 [3]: > 400 µM

Compound: COc1ccnc(C[S+]([O-])c2nc3cc(-n4cccc4)ccc3[nH]2)c1C (stereo not shown) [Compound 16, 2-[[(4-methoxy-3-methyl)-2-pyridinyl]methylsulfinyl]-5-(1H-pyrrol-1-yl)-1H-benzimidazole sodium salt]
Volume (acidity, total acid output) ([1]; 3 mg/kg, sodium salt): 22.59 ± 2.88 μ Eq/hr | Inhibition rate, acidity ([1]; 3 mg/kg, sodium salt): 70.05% | Volume (acidity, total acid output) ([1]; 10 mg/kg, sodium salt): 10.99 ± 3.05 μ Eq/hr | Inhibition rate, acidity ([1]; 10 mg/kg, sodium salt): 85.43% | Volume (acidity, total acid output) ([1]; 30 mg/kg, sodium salt): 1.98 ± 1.21 μ Eq/hr | Inhibition rate, acidity ([1]; 30 mg/kg, sodium salt): 97.37% | effect for lowering acidity ([1]; in words): good effects | Volume of gastric juice ([2]; 3 mg/kg, sodium salt): 2.05 ± 0.16 ml/100 g BW | Inhibition rate, gastric juice secretion ([2]; 3 mg/kg, sodium salt): 41.29% | Volume of gastric juice ([2]; 10 mg/kg, sodium salt): 1.35 ± 0.12 ml/100 g BW | Inhibition rate, gastric juice secretion ([2]; 10 mg/kg, sodium salt): 61.51% | Volume of gastric juice ([2]; 30 mg/kg, sodium salt): 1.17 ± 0.20 ml/100 g BW | Inhibition rate, gastric juice secretion ([2]; 30 mg/kg, sodium salt): 66.61% | effect for inhibition of gastric acid secretion ([2]; in words): good effects | IC50 [3]: 28 µM

Compound: COc1ccc2[nH]c([S+]([O-])Cc3ncc(C)c(OC)c3C)nc2c1 (stereo not shown) [Omeprazole, 5-methoxy-2-[[(4-methoxy-3,5-dimethyl-2-pyridinyl)methyl]sulfinyl]-1H-benzimidazole, reference compound]
Volume (acidity, total acid output) ([1]; 10 mg/kg): 12.46 ± 1.85 μ Eq/hr | Inhibition rate, acidity ([1]; 10 mg/kg): 84.00% | Volume of gastric juice ([2]; 10 mg/kg): 1.68 ± 0.30 ml/100 g BW | Inhibition rate, gastric juice secretion ([2]; 10 mg/kg): 54.49% | IC50 [3]: ~160 µM

Compound: COc1ccnc(CS(=O)(=O)c2nc3cc(-n4cccc4)ccc3[nH]2)c1C [Compound 3]
IC50 [3]: > 400 µM

Compound: Cc1ccnc(C[S+]([O-])c2nc3cc(-n4cccc4)ccc3[nH]2)c1 (stereo not shown) [Compound 7]
IC50 [3]: > 400 µM

Compound: COc1ccnc(C[S+]([O-])c2nc3cc(-n4cccc4)ccc3[nH]2)c1 (stereo not shown) [Compound 8]
Volume (acidity, total acid output) ([1]; 10 mg/kg): 14.29 ± 2.81 μ Eq/hr | Inhibition rate, acidity ([1]; 10 mg/kg): 60.81% | Volume (acidity, total acid output) ([1]; 30 mg/kg): 2.92 ± 1.42 μ Eq/hr | Inhibition rate, acidity ([1]; 30 mg/kg): 91.99% | effect for lowering acidity ([1]; in words): good effects | Volume of gastric juice ([2]; 10 mg/kg): 1.42 ± 0.24 ml/100 g BW | Inhibition rate, gastric juice secretion ([2]; 10 mg/kg): 28.85% | Volume of gastric juice ([2]; 30 mg/kg): 0.87 ± 0.15 ml/100 g BW | Inhibition rate, gastric juice secretion ([2]; 30 mg/kg): 56.09% | effect for inhibition of gastric acid secretion ([2]; in words): good effects | IC50 [3]: 91 µM

Now from value to molecule, other results behind:

IC50 [3]: 100 µM
Compound: Cc1c(OCC(F)(F)F)ccnc1C[S+]([O-])c1nc2cc(-n3cccc3)ccc2[nH]1 (stereo not shown) [Compound 13, 2-[[(4-(2,2,2-trifluoroethoxy)-3-methyl)-2-pyridinyl]methylsulfinyl]-5-(1H-pyrrol-1-yl)-1H-benzimidazole]

IC50 [3]: 8.8 µM
Compound: CCc1cnc(C[S+]([O-])c2nc3cc(-n4cccc4)ccc3[nH]2)cc1OC (stereo not shown) [Compound 10]

IC50 [3]: > 400 µM
Compound: [O-][S+](Cc1ccccn1)c1nc2cc(-n3cccc3)ccc2[nH]1 (stereo not shown) [Compound 11]

IC50 [3]: 85 µM
Compound: Cc1cnc(C[S+]([O-])c2nc3cc(-n4cccc4)ccc3[nH]2)c(C)c1 (stereo not shown) [Compound 12]

IC50 [3]: 33 µM
Compound: COc1ccnc(C[S+]([O-])c2nc3cc(-n4c(C)ccc4C)ccc3[nH]2)c1C (stereo not shown) [Compound 15, 2-[[(4-methoxy-3-methyl)-2-pyridinyl]methylsulfinyl]-5-(1H-2,5-dimethylpyrrol-1-yl)-1H-benzimidazole]

IC50 [3]: > 400 µM
Compound: Cc1c(OCC(F)(F)C(F)(F)F)ccnc1C[S+]([O-])c1nc2cc(-n3cccc3)ccc2[nH]1 (stereo not shown) [Compound 14, 2-[[(4-(2,2,3,3,3-pentafluoropropoxy)-3-methyl)-2-pyridinyl]methylsulfinyl]-5-(1H-pyrrol-1-yl)-1H-benzimidazole]

IC50 [3]: 38 µM
Compound: COc1cc(C[S+]([O-])c2nc3cc(-n4cccc4)ccc3[nH]2)ncc1C (stereo not shown) [Compound 18]
Volume (acidity, total acid output) ([1]; 3 mg/kg): 28.37 ± 3.44 μ Eq/hr | Inhibition rate, acidity ([1]; 3 mg/kg): 53.39% | Volume (acidity, total acid output) ([1]; 10 mg/kg): 23.40 ± 3.94 μ Eq/hr | Inhibition rate, acidity ([1]; 10 mg/kg): 61.55% | Volume (acidity, total acid output) ([1]; 30 mg/kg): 15.72 ± 3.60 μ Eq/hr | Inhibition rate, acidity ([1]; 30 mg/kg): 74.18% | Volume of gastric juice ([2]; 3 mg/kg): 2.24 ± 0.12 ml/100 g BW | Inhibition rate, gastric juice secretion ([2]; 3 mg/kg): 27.35% | Volume of gastric juice ([2]; 10 mg/kg): 2.14 ± 0.30 ml/100 g BW | Inhibition rate, gastric juice secretion ([2]; 10 mg/kg): 30.90% | Volume of gastric juice ([2]; 30 mg/kg): 1.53 ± 0.19 ml/100 g BW | Inhibition rate, gastric juice secretion ([2]; 30 mg/kg): 50.42%
